Test results reported in US20200207782A1, “CHEMICALLY ACTIVATED WATER-SOLUBLE PRODRUG” (SUMITOMO DAINIPPON PHARMA CO., LTD, priority 2017, published 2020).
≈ marks a conversion by molar mass, not a printed value.

How the values were obtained:
physchem = conditions: 50 mmol/L glycine buffer, pH 2, aqueous buffer, thermodynamic from solid
Protocol: (§7) The solubility of the water-soluble prodrugs described in the Examples and the Reference Examples was measured. […] The filtrate was measured by HPLC.

[1] = Evaluation of conversion rate to active form in human plasma; format: in vitro ADME; conditions: human, 10 umol/L
Protocol: (§1) The ratio of decrease of a test compound and the conversion ratio to a corresponding active form (2-acetylthieno[3,2-f][1]benzofuran-4,8-dione) in human plasma and CD1 mouse plasma were measured for Example 1.
(§2) The test compounds were incubated at 37° C. at a concentration of 10 umol/L in human plasma (cat. no. 12250210, Cosmo Bio) and CD1 mouse plasma (cat. no. AP3054, KAC) and retrieved for a given time (0, 5, 10, 30, 60, and 120 minutes) and deproteinized, then analyzed by LC-MS. Acetonitrile comprising each of 10% quantity of 1 mol/L hydrochloric acid, 1% quantity of 46% citric acid, and phenytoin as an internal standard was used for deproteinization.
(§3) LC-MS measurement conditions were the following.
(§4) The yield of the Examples compounds and active form 2-acetylthieno[3,2-f][1]benzofuran-4,8-dione is calculated with each of the peak area of the Example compounds at 0 minutes and the peak area upon dissolution of 2-acetylthieno[3,2-f][1]benzofuran-4,8-dione at 100 umol/L as 100%. The yield is denoted in terms of %.
(§5) In the same manner as Example 1, the conversion ratio to an active form was measured for each of the various test compounds in human plasma and CD1 mouse plasma, with incubation time as 120 minutes. It was confirmed that the series of compounds of the invention was converted to an active form with a small interspecies difference in human plasma and CD1 mouse plasma.
(§6) The yield of the active forms is calculated with the each peak area upon dissolution of the generated active form at 100 umol/L as 100%. The yield is denoted in terms of %.

[2] = Evaluation of conversion rate to active form in CD1 mouse plasma; format: in vitro ADME; conditions: CD1, mouse, 10 umol/L
Protocol: as §1, §2, §3, §4, §5, §6

[3] = pH 2
Protocol: as §7

| solubility at 24 h (physchem) | Measurement value % of active form (conversion ratio to active form) ([1]; 0 min) | Measurement value % of active form (conversion ratio to active form) ([1]; 5 min) | Measurement value % of active form (conversion ratio to active form) ([1]; 10 min) | Measurement value % of active form (conversion ratio to active form) ([1]; 30 min) | Measurement value % of active form (conversion ratio to active form) ([1]; 60 min) | Measurement value % of active form (conversion ratio to active form) ([1]; 120 min) | Measurement value % of active form (conversion ratio to active form) ([2]; 0 min) | Measurement value % of active form (conversion ratio to active form) ([2]; 5 min) | Measurement value % of active form (conversion ratio to active form) ([2]; 10 min) | Measurement value % of active form (conversion ratio to active form) ([2]; 30 min) | Measurement value % of active form (conversion ratio to active form) ([2]; 60 min) | Measurement value % of active form (conversion ratio to active form) ([2]; 120 min) | Compound | Solubility in buffer [3] |
| --- | --- | --- | --- | --- | --- | --- | --- | --- | --- | --- | --- | --- | --- | --- |
| 4 µg/mL (≈ 16.2 µM) | 0.0% | 36.4% | 51.6% | 83.4% | 89.7% | 91.3% | 0.0% | 21.1% | 36.7% | 70.8% | 73.8% | 71.4% | CC(=O)c1cc2c(o1)C(=O)c1sccc1C2=O [2-acetylthieno[3,2-f][1]benzofuran-4,8-dione, reference compound] | – |
| – | – | – | – | – | – | – | – | – | – | – | – | – | C[C@H]1COC2=C1C(=O)C(=O)c1c2ccc2c1CCCC2(C)C [(1R)-1,6,6-trimethyl-1,2,6,7,8,9-hexahydrophenanthro[1,2-b]furan-10,11-dione] | Below |
